Active and inactive are the calls of the source. No cut-off for these calls is given here.
How the values were obtained:
Spodoptera litura [1] = assay: Antifeedant activity against Spodoptera litura in compound treated cork borer from fresh sweet potato leaves assessed as leaf disk consumed at 26.5 degC; type: functional
Spodoptera litura [2] = assay: Antifeedant activity against Spodoptera litura in compound treated cork borer from fresh sweet potato leaves assessed as leaf disk consumed at 0.33 mg/cm2 at 26.5 degC; type: functional
[3] = Lipophilicity, log k of the compound from retention time in ODS HPLC

SMILES: COc1ccc(/C=C2\Oc3cc(C)cc(C)c3C2=O)cc1OC
- ED50 (Spodoptera litura [1]): 1.02 umol/cm2
- pED50 (Spodoptera litura [1]): 5.99

SMILES: O=C1/C(=C/c2ccccc2)Oc2ccccc21 [(Z)-AURONE]
- ED50 (Spodoptera litura [1]): inactive
- Activity (Spodoptera litura [2]): <40%

SMILES: COc1cc(OC)c2c(c1)OCC2=O [4,6-DIMETHOXYCOUMARANONE]
- ED50 (Spodoptera litura [1]): 3.87 umol/cm2
- pED50 (Spodoptera litura [1]): 5.41

SMILES: COc1cc(/C=C2\Oc3ccccc3C2=O)ccc1O
- ED50 (Spodoptera litura [1]): inactive
- Activity (Spodoptera litura [2]): <40%

SMILES: COc1ccc(/C=C2\Oc3ccccc3C2=O)cc1 [4'-METHOXY-AURONE]
- ED50 (Spodoptera litura [1]): 2.03 umol/cm2
- pED50 (Spodoptera litura [1]): 5.69
- log k [3]: 0.689

SMILES: COc1cc(/C=C2\Oc3ccccc3C2=O)cc(OC)c1OC
- ED50 (Spodoptera litura [1]): inactive
- Activity (Spodoptera litura [2]): <40%

SMILES: COc1cc(/C=C2\Oc3ccccc3C2=O)cc(OC)c1
- ED50 (Spodoptera litura [1]): 3.45 umol/cm2
- pED50 (Spodoptera litura [1]): 5.46
- log k [3]: 0.741

SMILES: O=C1COc2ccccc21 [3-COUMARANONE]
- ED50 (Spodoptera litura [1]): inactive
- Activity (Spodoptera litura [2]): <40%

SMILES: O=C1/C(=C/c2ccc3c(c2)OCO3)Oc2ccccc21
- ED50 (Spodoptera litura [1]): 1.61 umol/cm2
- pED50 (Spodoptera litura [1]): 5.79
- log k [3]: 0.624

SMILES: COc1ccc(/C=C2\Oc3cc(OC)c(OC)c(OC)c3C2=O)cc1OC
- ED50 (Spodoptera litura [1]): inactive
- Activity (Spodoptera litura [2]): <40%

SMILES: COc1cc(OC)c2c(c1)O/C(=C\c1ccc(OC)c(OC)c1)C2=O [4,6,3',4'-TETRAMETHOXYAURONE]
- ED50 (Spodoptera litura [1]): 0.12 umol/cm2
- pED50 (Spodoptera litura [1]): 6.92
- log k [3]: 0.277

SMILES: COc1cccc(/C=C2\Oc3ccccc3C2=O)c1 [3'-METHOXY-AURONE]
- ED50 (Spodoptera litura [1]): 1.01 umol/cm2
- pED50 (Spodoptera litura [1]): 6
- log k [3]: 0.737

SMILES: COc1ccccc1/C=C1\Oc2ccccc2C1=O [(Z)-2'-METHOXYAURONE]
- ED50 (Spodoptera litura [1]): inactive
- Activity (Spodoptera litura [2]): <40%

SMILES: Cc1cc(C)c2c(c1)OCC2=O [4,6-DIMETHYLCOUMARANONE]
- ED50 (Spodoptera litura [1]): 0.68 umol/cm2
- pED50 (Spodoptera litura [1]): 6.17

SMILES: COc1cc2c(c(OC)c1OC)C(=O)CO2 [4,5,6-TRIMETHOXYCOUMARANONE]
- ED50 (Spodoptera litura [1]): 0.41 umol/cm2
- pED50 (Spodoptera litura [1]): 6.39

SMILES: CCOc1cc(/C=C2\Oc3ccccc3C2=O)ccc1O
- ED50 (Spodoptera litura [1]): 1.96 umol/cm2
- pED50 (Spodoptera litura [1]): 5.71
- log k [3]: 0.382

SMILES: C/C=C(/C)C(=O)O[C@H]1C[C@@H](OC(C)=O)[C@@]2(C)CO[C@H]3[C@H]4O[C@@H]5C[C@@H](c6ccoc6)C(C)=C5[C@@]4(C)[C@H](CC(=O)OC)[C@]1(C)[C@@H]32 [SALANNIN]
- ED50 (Spodoptera litura [1]): 0.066 umol/cm2
- pED50 (Spodoptera litura [1]): 7.18

SMILES: COc1cc(OC)c2c(c1)O/C(=C\c1ccccc1)C2=O
- ED50 (Spodoptera litura [1]): 0.85 umol/cm2
- pED50 (Spodoptera litura [1]): 6.07
- log k [3]: 0.56

SMILES: COc1ccc(/C=C2\Oc3ccccc3C2=O)cc1OC [3',4'-DIMETHOXY-AURONE]
- ED50 (Spodoptera litura [1]): 0.86 umol/cm2
- pED50 (Spodoptera litura [1]): 6.07
- log k [3]: 0.741

SMILES: Cc1cc(C)c2c(c1)O/C(=C\c1ccc(C)c(C)c1)C2=O
- ED50 (Spodoptera litura [1]): inactive
- Activity (Spodoptera litura [2]): <40%

SMILES: O=C1/C(=C/c2cccc(Cl)c2)Oc2ccccc21
- ED50 (Spodoptera litura [1]): inactive
- Activity (Spodoptera litura [2]): <40%

SMILES: O=C1/C(=C/c2cccc(Br)c2)Oc2ccccc21
- ED50 (Spodoptera litura [1]): 4.21 umol/cm2
- pED50 (Spodoptera litura [1]): 5.38
- log k [3]: 1.05

SMILES: COc1cc(OC)c2c(c1)O/C(=C\c1ccc(C)c(C)c1)C2=O
- ED50 (Spodoptera litura [1]): inactive
- Activity (Spodoptera litura [2]): <40%

SMILES: O=C1/C(=C/c2ccc(O)c(O)c2)Oc2ccccc21
- ED50 (Spodoptera litura [1]): inactive
- Activity (Spodoptera litura [2]): <40%
